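Test compounds were applied to cells in 96-well plates for 48 hours at 5 doses. TGI: concentration producing complete growth inhibition.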
Legend:
Test in all cases: NCI-60 cell line screen, 48 h
A498 renal = tested on: A498 renal
ACHN renal = tested on: ACHN renal
HCC-2998 colon = tested on: HCC-2998 colon
HCT-116 colon = tested on: HCT-116 colon
HS 578T breast = tested on: HS 578T breast
KM12 colon = tested on: KM12 colon
MDA-MB-435 = tested on: MDA-MB-435
MOLT-4 leukemia = tested on: MOLT-4 leukemia
NCI-H522 lung = tested on: NCI-H522 lung
NCI/ADR-RES ovarian = tested on: NCI/ADR-RES ovarian
OVCAR-8 ovarian = tested on: OVCAR-8 ovarian
SF-295 CNS = tested on: SF-295 CNS
SK-MEL-2 melanoma = tested on: SK-MEL-2 melanoma
SK-MEL-5 melanoma = tested on: SK-MEL-5 melanoma
SK-OV-3 ovarian = tested on: SK-OV-3 ovarian
SNB-75 CNS = tested on: SNB-75 CNS
UACC-257 melanoma = tested on: UACC-257 melanoma
UACC-62 melanoma = tested on: UACC-62 melanoma
HL-60(TB) leukemia = tested on: HL-60(TB) leukemia
MCF7 breast = tested on: MCF7 breast

With O=C1CCCN1C(=O)CS(=O)(=O)c1ccccc1 the TGI (A498 renal) was > 100 µM, the TGI (ACHN renal) was > 100 µM and the TGI (HCC-2998 colon) was > 100 µM. The TGI (HCT-116 colon) was > 100 µM, the TGI (HS 578T breast) was > 100 µM and the TGI (KM12 colon) was > 100 µM. For the same compound, the TGI (MDA-MB-435) was > 100 µM, the TGI (MOLT-4 leukemia) was > 100 µM and the TGI (NCI-H522 lung) was > 100 µM. The TGI (NCI/ADR-RES ovarian) was > 100 µM, the TGI (OVCAR-8 ovarian) was > 100 µM and the TGI (SF-295 CNS) was > 100 µM. For the same compound, the TGI (SK-MEL-2 melanoma) was > 100 µM, the TGI (SK-MEL-5 melanoma) was > 100 µM and the TGI (SK-OV-3 ovarian) was > 100 µM. The TGI (SNB-75 CNS) was > 100 µM, the TGI (UACC-257 melanoma) was > 100 µM and the TGI (UACC-62 melanoma) was > 100 µM.

CO/C(=N\N=C\c1ccc(OC)c(OC)c1)c1ccncc1 was tested, and the TGI (A498 renal) was > 10 µM, the TGI (HCC-2998 colon) was > 10 µM and the TGI (HL-60(TB) leukemia) was > 10 µM. For the same compound, the TGI (HS 578T breast) was > 10 µM, the TGI (KM12 colon) was > 10 µM and the TGI (MCF7 breast) was > 10 µM. For the same compound, the TGI (MOLT-4 leukemia) was > 10 µM, the TGI (NCI/ADR-RES ovarian) was > 10 µM and the TGI (OVCAR-8 ovarian) was > 10 µM. The TGI (SK-MEL-5 melanoma) was > 10 µM, the TGI (SK-OV-3 ovarian) was > 10 µM and the TGI (SNB-75 CNS) was > 10 µM. For the same compound, the TGI (UACC-257 melanoma) was > 10 µM and the TGI (UACC-62 melanoma) was > 10 µM.

For CN1c2ccccc2C(=O)NC12CCN(CCCC(=O)c1ccc(F)cc1)CC2, the TGI (ACHN renal) was > 100 µM, the TGI (HCC-2998 colon) was 40.3 µM and the TGI (HCT-116 colon) was > 100 µM. For the same compound, the TGI (HL-60(TB) leukemia) was > 100 µM, the TGI (HS 578T breast) was > 100 µM and the TGI (KM12 colon) was > 100 µM. The TGI (MCF7 breast) was > 100 µM, the TGI (MDA-MB-435) was > 100 µM and the TGI (MOLT-4 leukemia) was 71.2 µM. For the same compound, the TGI (NCI-H522 lung) was > 100 µM, the TGI (NCI/ADR-RES ovarian) was > 100 µM and the TGI (OVCAR-8 ovarian) was > 100 µM. The TGI (SF-295 CNS) was > 100 µM, the TGI (SK-MEL-2 melanoma) was > 100 µM and the TGI (SK-MEL-5 melanoma) was 79.6 µM. For the same compound, the TGI (SK-OV-3 ovarian) was > 100 µM, the TGI (SNB-75 CNS) was > 100 µM and the TGI (UACC-257 melanoma) was 87.6 µM. For the same compound, the TGI (UACC-62 melanoma) was > 100 µM.

Work on N#Cc1sc2c(c1OC(=O)c1ccccc1)c(=O)n(-c1ccccc1)c(=S)n2-c1ccccc1 yielded a TGI (HCC-2998 colon) of 68.9 µM, a TGI (HCT-116 colon) of 40.6 µM and a TGI (HL-60(TB) leukemia) of 61.4 µM. It also gave a TGI (HS 578T breast) of 52.2 µM, a TGI (KM12 colon) of 43.5 µM and a TGI (MCF7 breast) of 43.6 µM. The TGI (MDA-MB-435) was 67.9 µM, the TGI (MOLT-4 leukemia) was 51.8 µM and the TGI (NCI-H522 lung) was 29.8 µM. For the same compound, the TGI (NCI/ADR-RES ovarian) was 49.3 µM, the TGI (OVCAR-8 ovarian) was > 100 µM and the TGI (SF-295 CNS) was 70.3 µM. The TGI (SK-MEL-2 melanoma) was 80.3 µM, the TGI (SK-MEL-5 melanoma) was 28.5 µM and the TGI (SK-OV-3 ovarian) was > 100 µM. For the same compound, the TGI (UACC-257 melanoma) was > 100 µM and the TGI (UACC-62 melanoma) was 40.9 µM.

In the case of C=CC[C@@H](N)C(=O)N(C)[C@@H](C)[C@@H](O)c1ccccc1, the TGI (A498 renal) is reported as > 100 µM, the TGI (ACHN renal) is reported as > 100 µM and the TGI (HCT-116 colon) is reported as > 100 µM. For the same compound, the TGI (HL-60(TB) leukemia) was > 100 µM, the TGI (HS 578T breast) was > 100 µM and the TGI (KM12 colon) was > 100 µM. For the same compound, the TGI (MDA-MB-435) was > 100 µM, the TGI (MOLT-4 leukemia) was > 100 µM and the TGI (NCI-H522 lung) was 44.2 µM. For the same compound, the TGI (NCI/ADR-RES ovarian) was > 100 µM, the TGI (OVCAR-8 ovarian) was > 100 µM and the TGI (SF-295 CNS) was > 100 µM. For the same compound, the TGI (SK-MEL-2 melanoma) was > 100 µM, the TGI (SK-MEL-5 melanoma) was > 100 µM and the TGI (SK-OV-3 ovarian) was > 100 µM. For the same compound, the TGI (SNB-75 CNS) was > 100 µM, the TGI (UACC-257 melanoma) was > 100 µM and the TGI (UACC-62 melanoma) was > 100 µM.

In the case of CC1=NNC(=O)C1C1CC(c2c[nH]c3ccccc23)=NNC1=O (centres undefined), the TGI (A498 renal) is reported as > 100 µM, the TGI (ACHN renal) is reported as > 100 µM and the TGI (HCT-116 colon) is reported as > 100 µM. The TGI (HL-60(TB) leukemia) was > 100 µM, the TGI (HS 578T breast) was > 100 µM and the TGI (KM12 colon) was > 100 µM. The TGI (MDA-MB-435) was > 100 µM, the TGI (MOLT-4 leukemia) was > 100 µM and the TGI (NCI-H522 lung) was > 100 µM. The TGI (NCI/ADR-RES ovarian) was > 100 µM, the TGI (OVCAR-8 ovarian) was > 100 µM and the TGI (SF-295 CNS) was > 100 µM. The TGI (SK-MEL-2 melanoma) was > 100 µM, the TGI (SK-MEL-5 melanoma) was > 100 µM and the TGI (SK-OV-3 ovarian) was > 100 µM. For the same compound, the TGI (SNB-75 CNS) was > 100 µM, the TGI (UACC-257 melanoma) was > 100 µM and the TGI (UACC-62 melanoma) was > 100 µM.

— PubChem BioAssay (NCI)
